Measured values taken from PubChem BioAssay (NCI).
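Growth conditions: 96-well plates. Treatment: test compound, 48 hours, 5 concentrations. Analysis: linear interpolation between bracketing concentrations; unreached endpoints set to highest concentration. Here, GI50 denotes the concentration required for 50% inhibition of growth. TGI marks complete inhibition of growth.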

Assays:
Assay in all cases: NCI anticancer screen, dose series, 48 h
SW-620 colon = tested on: SW-620 colon
OVCAR-4 ovarian = tested on: OVCAR-4 ovarian
OVCAR-8 ovarian = tested on: OVCAR-8 ovarian
RXF 393 renal = tested on: RXF 393 renal
M14 melanoma = tested on: M14 melanoma
DU-145 prostate = tested on: DU-145 prostate
MOLT-4 leukemia = tested on: MOLT-4 leukemia
HS 578T breast = tested on: HS 578T breast
NCI/ADR-RES ovarian = tested on: NCI/ADR-RES ovarian
T-47D breast = tested on: T-47D breast

SMILES | TGI (SW-620 colon) [µM] | TGI (OVCAR-4 ovarian) [µM] | TGI (OVCAR-8 ovarian) [µM] | TGI (RXF 393 renal) [µM] | TGI (M14 melanoma) [µM] | TGI (DU-145 prostate) [µM] | TGI (MOLT-4 leukemia) [µM] | TGI (HS 578T breast) [µM] | TGI (NCI/ADR-RES ovarian) [µM] | TGI (T-47D breast) [µM] | GI50 (T-47D breast) [µM] | GI50 (NCI/ADR-RES ovarian) [nM]
Cc1cc(-c2[nH]c(C(=O)O)cc2I)on1 | > 100 | > 100 | 81.9 | > 100 | > 100 | > 100 | > 100 | > 100 | > 100 |  |  | 
O=c1/c(=C\c2ccccc2)sc2n1C(c1ccccc1)C1(O)CCCCC1N=2 (stereo unspecified) | > 100 | > 100 | > 100 |  | > 100 |  | > 100 |  |  | > 100 |  | 
FC(F)(F)c1ccccc1N1CCN(c2nc(-c3cccs3)nc3ccc(Br)cc23)CC1 | > 100 | > 100 | > 100 |  | > 100 | > 100 | > 100 | > 100 | > 100 | > 100 |  | 
Cc1ccc(OCC2OC(n3cnc4c(N(C)C)nc(Br)nc43)CC2Oc2ccc(C)cc2)cc1 (stereo unspecified) | > 100 | > 100 | > 100 |  | > 100 | > 100 |  | > 100 | > 100 | > 100 |  | 
Cc1c2c(cc3c1[nH]c1ccccc13)C=NCC2 | 27.6 | 53 | 36.4 | 16.4 |  |  | 24.8 |  | 63.3 |  |  | 
NC(=O)c1nnc2cc(F)ccc2c1N | > 100 | > 100 | > 100 |  | > 100 | > 100 | > 100 | > 100 | > 100 | > 100 |  | 
NCCCn1c2ccccc2c2c3c(c4c(c21)CCC(O)CC4)C(=O)NC3=O (stereo unspecified) | 5.19 | 5.44 | 21.6 | 13.6 | 18.2 | 14.1 | 11.2 | 20.9 | 32.9 |  |  | 
COc1cc2c(c(OC)c1OC)-c1ccc(SC)c(=O)cc1[C@@H](OC(C)=O)CC2 | > 100 | > 100 | > 100 | > 100 | > 100 | > 100 | > 100 | > 100 |  | > 100 |  | 
CCC1C(c2cccc(OC)c2O)c2cc3c(cc2OC1N1CCCC1)OCO3 (stereo unspecified) | 58.8 |  | 89.9 |  | 23.9 |  | 45 | 29.9 | 54.7 | 68.7 |  | 
CN(C(=O)Cc1ccc(Cl)c(Cl)c1)[C@H]1CCCC[C@@H]1[N+]1(C)CCCC1 | > 100 | > 100 | > 100 |  | > 100 | > 100 | > 100 | > 100 | > 100 | > 100 |  | 
CC(C)C(C/C=C1\CC(CO)(COC(=O)c2ccccc2)OC1=O)C(C)C (stereo unspecified) | 33.8 | 35.6 | 36 | 45.4 | 32.8 |  | 42.6 | 33.4 | 45 | > 100 |  | 
CCCCCC(=O)c1ccc2[nH]c3c(C)cc([N+](=O)[O-])c(C)c3c2c1 | > 100 | > 100 | > 100 |  | > 100 |  | > 100 |  |  |  |  | 
CCOC(=O)Oc1cc2c(c(OC)c1OC)-c1ccc(SC)c(=O)cc1C(NC(=O)C(F)(F)F)CC2 (stereo unspecified) | > 100 |  |  | < 0.001 | 38.8 |  |  | < 0.001 |  | 81 | 21.4 | 23
C=CC1ON(Cc2ccccc2)CCc2cc(OC)c(OC)cc21 (stereo unspecified) | > 100 |  | > 100 |  | > 100 | > 100 | > 100 | > 100 | > 100 | > 100 |  | 
O=C(/C=C/c1cccc(Br)c1)c1cccs1 | 27.5 | 31.8 | 37.6 |  | 51.1 |  | 53.2 | 72.3 | 56.9 | 34 |  | 
C=C1C[C@@H](O)C[C@@]2(C)C[C@@H]3OC(=O)C(=C)[C@@H]3C[C@H]12 | 18.1 | 31.4 | 46.6 | 20.3 |  |  | 16.1 |  | 28.4 |  |  | 
COC(=O)c1cc(NC(=O)c2cc(NC(=O)c3cc([N+](=O)[O-])cn3C)cn2C)cn1C | > 100 | > 100 | > 100 | > 100 | > 100 | > 100 | > 100 |  | > 100 | > 100 |  | 
COc1ccccc1-c1cc(=O)c2ccccc2[nH]1 | > 100 |  | > 100 | > 100 | > 100 |  | > 100 |  |  |  |  | 
COc1ccc(O[C@H](COCc2ccccc2)C[C@@H]2COC(C)(C)O2)cc1 | > 100 | > 100 | > 100 | > 100 | > 100 | > 100 | > 100 |  | > 100 |  |  | 

SMILES | TGI (SW-620 colon) [µM] | TGI (OVCAR-4 ovarian) [µM] | TGI (OVCAR-8 ovarian) [µM] | TGI (RXF 393 renal) [µM] | TGI (M14 melanoma) [µM] | TGI (DU-145 prostate) [µM] | TGI (MOLT-4 leukemia) [µM] | TGI (HS 578T breast) [µM] | TGI (NCI/ADR-RES ovarian) [µM] | TGI (T-47D breast) [µM] | GI50 (T-47D breast) [µM] | GI50 (NCI/ADR-RES ovarian) [nM]
Cn1c(C(C#N)c2nc(Cl)ncc2Br)nc2ccccc21 (stereo unspecified) | > 100 | > 100 | > 100 | > 100 | > 100 | > 100 | > 100 |  | > 100 | > 100 |  | 
CCOc1ccc(/C=C(\Cl)c2ccc(OC)c(OC)c2)cc1 | > 100 | > 100 | > 100 | 65.5 | 89.6 |  | > 100 |  |  |  |  | 
O=C(Nc1nc2c(=O)[nH]cnc2s1)c1ccccc1 | > 100 | > 100 | > 100 | > 100 |  | > 100 |  | > 100 | > 100 |  |  | 
O=C(Nc1c[nH]c(=O)[nH]c1=O)C(Cl)Cl | > 100 | > 100 | > 100 | > 100 | > 100 | > 100 | > 100 |  | > 100 | > 100 |  | 
Cc1ccc(S(=O)(=O)/N=C(\NN)Nc2ccc(Cl)cc2)cc1 | > 100 | > 100 | > 100 | > 100 | > 100 | > 100 | > 100 |  | > 100 | > 100 |  | 
O=C1O/C(=C(\Br)c2cccc3ccccc23)c2ccccc21 | > 58.3 | 30.9 | > 62.3 | > 62.8 | > 62.8 |  | 46.7 |  |  |  |  | 
CCOC(=O)/C(=C\c1ccc(N(C)C)cc1)S(=O)(=O)C(F)(F)C(F)(F)C(F)(F)C(F)(F)F | > 100 | > 100 | > 100 |  | > 100 | > 100 | > 100 | > 100 | > 100 | > 100 |  | 
CCN(CC)CCCOC(=O)/C=C/c1c(C)[nH]c(=O)[nH]c1=O | > 625 | > 394 | > 625 | > 99.1 |  |  | > 625 |  | > 625 |  |  | 
CC(C)SC(C)(NC(=O)C1C(C)(C)CCC1(C)C)C(=O)O (stereo unspecified) | > 100 |  |  |  | > 100 | > 100 | > 100 | > 100 | > 100 | > 100 |  | 
O=C(N=C1SCCN1C(=O)C(C(F)(F)F)C(F)(F)F)C(C(F)(F)F)C(F)(F)F | > 100 | > 100 | > 100 | > 100 | > 100 |  | > 100 |  | > 100 |  |  | 
C=CCOCn1cnc2c(N)ncnc21 | > 100 | > 100 | > 100 |  | > 100 | > 100 | > 100 | > 100 | > 100 | > 100 |  | 
C=C1C(=O)OC2(C)C3CCC(C3)C12 (stereo unspecified) | > 100 | > 100 | > 100 |  | 95.7 |  | > 100 |  |  |  |  | 
COC(=O)/C=C(\C)C(=O)N(C)c1ccccc1I | > 100 | > 100 | > 100 | > 100 | > 100 | > 100 | > 100 |  | > 100 | > 100 |  | 
COc1cc(C2SCC(=O)N2c2ccc(-n3c(-c4ccccc4)nc4ccccc4c3=O)cc2)ccc1O (stereo unspecified) | > 100 | > 100 | > 100 |  | > 100 | > 100 | > 100 | > 100 | > 100 | > 100 |  | 
Cc1cc(O)c2c(c1O)C(=O)C13C(=C2O)C(=O)C2C(O)C1C1C(O)C3C(=O)C3=C(O)c4c(O)cc(C)c(O)c4C(=O)C321 (stereo unspecified) | 0.313 | 7.24 | 1.59 | 0.295 |  |  | 0.483 |  | 12.2 |  |  | 
CC12CCC(C(=O)O1)C(C)(C)O2 (stereo unspecified) | > 100 | > 100 | > 100 | > 100 | > 100 |  | > 100 | > 100 | > 100 |  |  | 
O=C1/C(=C\c2cccc(Oc3ccccc3)c2)S(=O)(=O)C(c2ccccc2)N1c1ccccc1Cl (stereo unspecified) | > 100 | 98.1 | > 100 | > 100 | 89.1 | > 100 | 48.9 |  | > 100 | > 100 |  | 
Cc1sc2nc(-c3cc([N+](=O)[O-])c(Cl)cc3Cl)c(/C=N/N=C(N)N)n2c1C | 69.3 | 9 | 31.6 | 20.6 | 7 | 39.1 | 4.64 | 82.7 | > 100 |  |  | 
O=C(O)CCCCCOc1cccnc1/C=N/NC1=NCCN1 | > 100 | > 100 | > 100 | > 100 | > 100 |  | > 100 |  |  |  |  | 
